PMC9718554, “Discovery of a fragment hit compound targeting D-Ala:D-Ala ligase of bacterial peptidoglycan biosynthesis” (Journal of Enzyme Inhibition and Medicinal Chemistry, 2022)
Like-named read-outs stand apart in the source and are kept apart here.

Molecular target: T1, E. coli DdlB enzyme (D-alanine:D-alanine ligase) (Escherichia coli, UniProt P07862)
T1 construct: made in house; host or cells: E. coli
Test: biochemical
Settings: for remaining activity at 2000 µM: tested concentration 2.0 mM; for remaining activity at 2800 µM: tested concentration 2.8 mM; for remaining activity at 2300 µM: tested concentration 2.3 mM; for remaining activity at 2100 µM: tested concentration 2.1 mM; for remaining activity at 2400 µM: tested concentration 2.4 mM; for remaining activity at 1700 µM: tested concentration 1.7 mM; for remaining activity at 2900 µM: tested concentration 2.9 mM; for remaining activity at 2200 µM: tested concentration 2.2 mM

[1] = fragment library screening, read-out: DdlB RA
[2] = residual activity, read-out: DdlB RA
[3] = residual activity of DdlB, fragment library screening, tested concentration 2.5 mM, read-out: DdlB RA
[4] = tested concentration 2.5 mM, read-out: DdlB RA
[5] = fragment library screening, tested concentration 1.8 mM, read-out: DdlB RA
[6] = residual activity, tested concentration 1.8 mM, read-out: DdlB RA

COC(=O)C(O)(c1cc(C)c(N)c(C)c1)C(F)(F)F (stereo not drawn) [Compound 8015-4257]
remaining activity at 1800 µM (read-out: DdlB RA): 94%

O=C(O)c1ccccc1C(=O)NCc1cccnc1 [Compound 1514-0633]
remaining activity at 2000 µM [1]: 93%

C#CC(=O)NCc1ccc(F)cc1F [Compound T001-0851]
remaining activity at 2800 µM (read-out: DdlB RA): 93%

O=C(O)c1cccnc1NCc1ccc(F)cc1 [Compound 8020-1800]
remaining activity at 2000 µM [2]: 102%

NS(=O)(=O)c1ccc2c(c1)OCCO2 [Compound 1313-0805]
remaining activity at 2300 µM (read-out: DdlB RA): 88%

Nc1cccc(CC(=O)O)c1 [FLD131]
remaining activity at 2500 µM [3]: 97%

CCC([N+](=O)[O-])C1(O)C(=O)Nc2ccccc21 (stereo not drawn) [Compound 3817-0017]
remaining activity at 2100 µM [2]: 95%

O=C(O)c1n[nH]c2ccccc12 [FLD005]
remaining activity at 2500 µM [3]: 97%

CCc1cccc(N)n1 [FLD162]
remaining activity at 2500 µM [3]: 100%

COC(C(=O)NC1CC1)c1ccccc1 (stereo not drawn) [Compound 8010-8989]
remaining activity at 2400 µM (read-out: DdlB RA): 94%

CC(C)N1CCC(CCC(=O)O)CC1 [FF20-1518]
remaining activity at 2500 µM [4]: 108%

Cn1ncc(C(=O)O)c1C(=O)NCC1CCCO1 (stereo not drawn) [Compound Y504-5972]
remaining activity at 2000 µM (read-out: DdlB RA): 96%

O=C1CCn2ncnc2N1 [Compound Y021-0743]
remaining activity at 3600 µM (residual activity of DdlB, fragment library screening, tested concentration 3.6 mM, read-out: DdlB RA): 98%

Cc1ccc(C(=O)CC2(O)C(=O)Nc3ccccc32)c(C)c1 (stereo not drawn) [Compound 8010-6588]
remaining activity at 1700 µM (read-out: DdlB RA): 93%

CC(=O)Nc1cccc(C)c1 [FLD063]
remaining activity at 2500 µM [3]: 100%

Cc1[nH]c(N)c(C#N)c1C [Compound 8018-8696]
remaining activity at 4400 µM (residual activity of DdlB, fragment library screening, tested concentration 4.4 mM, read-out: DdlB RA): 98%

OB1OCc2ccccc21 [Compound 8008-5589]
remaining activity at 3700 µM (tested concentration 3.7 mM, read-out: DdlB RA): 85%

O=C(Nc1cccnc1)[C@H]1CCCC[C@H]1C(=O)O [Compound Y203-7528]
remaining activity at 2000 µM [1]: 91%

Nc1ccc(S(=O)(=O)O)cc1 [Compound 8001-1265]
remaining activity at 2900 µM (read-out: DdlB RA): 95%

O=C1Nc2ncccc2OC1c1ccccc1 (stereo not drawn) [FF01-0341]
remaining activity at 2200 µM (read-out: DdlB RA): 106%

O=C(O)c1cc(Br)cc(Br)c1O [Compound Y501-3736]
remaining activity at 1700 µM (read-out: DdlB RA): -39%

Nc1ccc(F)c(Cl)c1 [FLD050]
remaining activity at 2500 µM (read-out: DdlB RA): 98%

Cc1nc(-c2ccncc2)sc1C(=O)O [FLD024]
remaining activity at 2500 µM [3]: 96%

CCN1CCOC(=O)C1CC(=O)Nc1ccc(F)cc1 (stereo not drawn) [Compound 8563-1154]
remaining activity at 2000 µM [2]: 88%

Cn1c(=O)cnc2ccc(N3CCCCCC3)nc21 [Compound Z601-8402]
remaining activity at 2300 µM (read-out: DdlB RA): 83%

O=C(O)c1ccc(-n2ccnc2)cc1 [FLD020]
remaining activity at 2500 µM [3]: 96%

N#Cc1ccccn1 [FLD180]
remaining activity at 2500 µM [3]: 98%

CCCN(C)C(=O)Cc1c[nH]c2ncccc12 [Compound M508-0627]
remaining activity at 2200 µM [2]: 86%

Nc1ncnc2[nH]ccc12 [FLD144]
remaining activity at 2500 µM [3]: 94%

Cc1nn(-c2ccccn2)c2c1C(=O)C(C#N)CC2 (stereo not drawn) [Compound 8015-7286]
remaining activity at 2200 µM (read-out: DdlB RA): 83%

COC(=O)c1sc(C(=O)OC)c(O)c1O [Compound 8011-7913]
remaining activity at 2200 µM [2]: 86%

O=C(O)COCC(=O)Nc1ccc(-c2nn[nH]n2)cc1 [Compound D047-0107]
remaining activity at 1800 µM [5]: 93%

O=C(O)c1ccccc1NC(=O)C1CCCCC1 [Compound Y030-1673]
remaining activity at 2000 µM (read-out: DdlB RA): 104%

CCCC(C)C(=O)Nc1ccc(S(N)(=O)=O)cc1 (stereo not drawn) [Compound Y030-4922]
remaining activity at 1800 µM (tested concentration 1.8 mM, read-out: DdlB RA): 77%

Cn1nc(CCC(=O)N2CCNC(=O)C2)c2c1CCOC2 [SD48-0069]
remaining activity at 2100 µM [2]: 99%

C1CNCC(CCc2noc(C3CCOCC3)n2)C1 (stereo not drawn) [SA66-1056]
remaining activity at 1800 µM [6]: 94%

Cc1ccc(C(=O)O)c(NC(=O)c2ccncc2)c1 [Compound 8006-9224]
remaining activity at 2000 µM [2]: 97%

Cc1nc(O)[nH]c(=O)c1S(=O)(=O)NC(C)(C)C [Compound D668-0207]
remaining activity at 1900 µM (residual activity, tested concentration 1.9 mM, read-out: DdlB RA): 85%

CC(C)CCN1C[C@@H]2CN(C)C(=O)[C@H](C)N2C1=O [SB41-0167]
remaining activity at 2400 µM (read-out: DdlB RA): 85%

COc1cccc(C(=O)Nc2ccccc2C(=O)O)c1 [Compound Y030-1668]
remaining activity at 1800 µM [6]: 97%

N#Cc1cncc(Br)c1 [FLD123]
remaining activity at 2500 µM [3]: 97%

O=C(O)c1cccn2c(=O)c3cc(Cl)ccc3nc12 [Compound C200-9602]
remaining activity at 1800 µM [6]: 78%

Nc1c(Cl)cc(S(N)(=O)=O)cc1Cl [Compound 0772-0030]
remaining activity at 2100 µM (read-out: DdlB RA): 93%

Cc1ccc(C#N)c(SCC(=O)O)n1 [Compound 8009-7785]
remaining activity at 2400 µM (read-out: DdlB RA): 82%

COc1ccc2c(c1)C(=O)CCC2 [FLD008]
remaining activity at 2500 µM [3]: 100%

Cc1nc(N)nc(C)c1CCC(=O)O [FF01-4599]
remaining activity at 3100 µM (tested concentration 3.1 mM, read-out: DdlB RA): 91%

CCn1cnnc1-c1nn(C)c2c1CNCC2 [Compound S565-0571]
remaining activity at 2000 µM (read-out: DdlB RA): 89%

Cc1ccc(Cl)cc1S(=O)(=O)N1CCOCC1 [Compound 8010-0539]
remaining activity at 2000 µM [2]: 98%

O=C(O)[C@@H]1[C@H]2CC[C@H](CC2)[C@@H]1C(=O)NCc1ccco1 [Compound Y206-3693]
remaining activity at 1800 µM [5]: 92%

CNC(C)C(O)c1ccccc1 (stereo not drawn) [FLD102]
remaining activity at 2500 µM [3]: 97%

CCOC(=O)C(C#N)c1ccccc1 (stereo not drawn) [FLD181]
remaining activity at 2500 µM [3]: 89%

O=C(O)C1C2CCC(C2)C1C(=O)NC1CC1 (stereo not drawn) [Compound Y205-0716]
remaining activity at 2700 µM (tested concentration 2.7 mM, read-out: DdlB RA): 93%

COCC(C)NC(=O)c1cc(C)no1 (stereo not drawn) [Compound C625-0074]
remaining activity at 2800 µM (read-out: DdlB RA): 96%

O=C(O)c1ccc(CN2CCCCC2)cc1 [FLD056]
remaining activity at 2500 µM [3]: 100%

OCCc1ccccc1C(F)(F)F [FLD177]
remaining activity at 2500 µM [3]: 100%

CN1CCN(C(=O)CCC(=O)O)c2cccnc21 [FF01-3162]
remaining activity at 2400 µM (read-out: DdlB RA): 65%

COc1cc(OC)c2cc(C(=O)O)[nH]c2c1 [Compound 8017-9359]
remaining activity at 2300 µM [2]: 104%

Cc1nnc(-c2ccc(C(=O)O)c(N)c2)o1 [Compound 8020-0732]
remaining activity at 2300 µM [2]: 114%

CC(=O)NCC1CNCC12CCCCC2 (stereo not drawn) [Compound S855-0002]
remaining activity at 2200 µM (read-out: DdlB RA): 85%

Cc1ccc(O)c(C(=O)O)c1 [FLD072]
remaining activity at 2500 µM [3]: 99%

O=C(O)c1ncoc1-c1ccc2c(c1)OCCO2 [Compound 8020-3638]
remaining activity at 2000 µM [2]: 62%

N#CC1CC(c2cccc(Cl)c2)=NO1 (stereo not drawn) [Compound 8020-2797]
remaining activity at 2900 µM (read-out: DdlB RA): 107%

O=C(c1ccc(O)cc1)c1ccc(O)cc1 [FLD093]
remaining activity at 2500 µM [3]: 97%

CC(C)(C)NS(=O)(=O)c1ccccc1 [Compound 0896-4384]
remaining activity at 2800 µM (read-out: DdlB RA): 95%

Cc1ccc(-c2noc(C(=O)O)n2)cc1 [Compound Y501-1890]
remaining activity at 2500 µM [4]: 77%

O=C(Cc1n[nH]c(-c2cccnc2)n1)NCC1CCCO1 (stereo not drawn) [Compound 8019-9738]
remaining activity at 1700 µM [2]: 94%

NC(=O)CN1C(=O)C2(CCCCC2)C1c1ccccc1 (stereo not drawn) [Compound S642-0104]
remaining activity at 2200 µM [2]: 96%

O=C1C(O)CC2c3ccccc3CC3(CCCC3)N12 (stereo not drawn) [Compound 8014-1716]
remaining activity at 2300 µM (read-out: DdlB RA): 85%

Cc1cc(C)c(S(N)(=O)=O)c(Cl)n1 [Compound 8008-1931]
remaining activity at 2300 µM (read-out: DdlB RA): 78%

O=[N+]([O-])c1ccc(O)c(Cl)c1 [FLD092]
remaining activity at 2500 µM [3]: 97%

CCc1nc2ccc(C(N)=O)cc2nc1CC [Compound Z601-0869]
remaining activity at 2400 µM (read-out: DdlB RA): 88%

Cc1ccc(C(=N)N)cc1 [FLD025]
remaining activity at 2500 µM [3]: 100%

O=C(O)C(Cc1ccccc1)Nc1ncccn1 (stereo not drawn) [Compound Y042-3157]
remaining activity at 2100 µM (read-out: DdlB RA): 90%

CCC[C@@H]1Cc2nc(O)c(C(=O)O)cc2CO1 [Compound 8330-0016]
remaining activity at 2100 µM (read-out: DdlB RA): 75%

CC(=O)Nc1ccc2c(C)cc(C)nc2n1 [Compound 8006-1575]
remaining activity at 2300 µM (read-out: DdlB RA): 97%

Cc1cccc(-c2ccnc3c(C#N)cnn23)c1 [Compound 22, 7-(m-Tolyl)pyrazolo[1,5-a]pyrimidine-3-carbonitrile]
remaining activity at 500 µM (at 0.5 mM, read-out: DdlB inhibition, RA (Residual Activity)): 100%

Oc1ccc(OCc2ccccc2)cc1 [FLD045]
remaining activity at 2500 µM [3]: 100%

Cc1nn(C)cc1-c1cc(C(=O)O)n[nH]1 [Compound Y503-2347]
remaining activity at 2400 µM (read-out: DdlB RA): 95%
